In brackets after ≈: the same amount, converted by molar mass. Several values for one entry are separate records, joined by “and”; a condition that tells them apart may be missing. Identical values can stand only once. Blank lines part the entries; values can stand above or below the compound they belong to.
What was measured:
Experiment in all cases: ≥ marks a high value that may be exact or a test limit, other limits are often not marked, values filed in µg/mL are converted to µM
[1] = system: Pectobacterium carotovorum subsp. carotovorum DSM 30168
[2] = system: Staphylococcus aureus 90857
[3] = system: Pseudomonas corrugata DSM 7228
[4] = system: Pseudomonas syringae pv. syringae DSM 10604
[5] = system: Clavibacter michiganensis subsp. michiganensis DSM 46294
[6] = system: Pseudomonas syringae pv. tomato DC3000
[7] = system: Xanthomonas vesicatoria DSM 50861
[8] = system: Neurospora crassa CBS 327-54
[9] = system: Escherichia coli D22
[10] = system: Micrococcus luteus A270
[11] = system: Aspergillus fumigatus
[12] = system: Cryptococcus neoformans
[13] = system: Escherichia coli ATCC 10536
[14] = system: Staphylococcus epidermidis ATCC 12228
[15] = system: Aggregatibacter actinomycetemcomitans ATCC 29522
[16] = system: Acinetobacter baumannii ATCC 19606
[17] = system: Candida krusei
[18] = system: Streptococcus sanguinis ATCC 10556
[19] = system: Candida krusei ATCC 20029
[20] = system: Cryptococcus neoformans ATCC 24067
[21] = system: Pseudomonas aeruginosa ATCC 27853
[22] = system: Staphylococcus aureus ATCC 6538
[23] = system: Cryptococcus gattii ATCC 32608
[24] = system: Bacillus cereus
[25] = system: Escherichia coli
[26] = system: Lactococcus lactis
[27] = system: Escherichia coli NCTC 10418
[28] = system: Staphylococcus aureus
[29] = system: Cupriavidus necator H16
[30] = system: Escherichia coli JM109
[31] = system: Escherichia coli BL21(DE3)
[32] = system: Pseudomonas putida GPp104
[33] = system: Mycobacterium tuberculosis CAS3
[34] = system: Mycobacterium tuberculosis FYX
[35] = system: Klebsiella pneumoniae ST258
[36] = system: Mycobacterium tuberculosis H37Rv
[37] = system: Mycobacterium tuberculosis
[38] = system: Mycobacterium tuberculosis WXY
[39] = system: Escherichia coli ATCC 25922

SMILES: CC[C@H](C)[C@H](N)C(=O)N[C@@H](Cc1c[nH]c2ccccc12)C(=O)N[C@@H](CC(C)C)C(=O)N[C@H](C(=O)N[C@@H](C)C(=O)N[C@@H](CC(C)C)C(=O)N[C@@H](CCCCN)C(=O)N[C@@H](Cc1ccccc1)C(=O)N[C@@H](CC(C)C)C(=O)NCC(=O)N[C@@H](CCCCN)C(=O)N[C@@H](CC(N)=O)C(=O)N[C@@H](CC(C)C)C(=O)NCC(=O)N[C@@H](CCCCN)C(=O)N[C@@H](Cc1cnc[nH]1)C(=O)N[C@@H](CC(C)C)C(=O)N[C@@H](C)C(=O)N[C@@H](CCCCN)C(=O)N[C@@H](CCC(N)=O)C(=O)N[C@@H](CCC(N)=O)C(=O)N[C@@H](CC(C)C)C(=O)N[C@@H](C)C(=O)N[C@@H](CCCCN)C(=O)N[C@@H](CC(C)C)C(N)=O)[C@@H](C)O [IWLTALKFLGKNLGKHLAKQQLAKL]
- MIC [12]: 13.2 µM (≈ 37.4 µg/mL)
- MIC [13]: 5.52 µM (≈ 15.6 µg/mL)
- MIC [14]: 0.7 µM (≈ 1.98 µg/mL)
- MIC [15]: 10.6 µM (≈ 30 µg/mL)
- MIC [16]: 0.7 µM (≈ 1.98 µg/mL)
- MIC [17]: 26.3 µM (≈ 74.5 µg/mL)
- MIC [18]: 10.9 µM (≈ 30.9 µg/mL)
- MIC [19]: 14.2 µM (≈ 40.3 µg/mL)
- MIC [20]: 7.11 µM (≈ 20.1 µg/mL)
- MIC [21]: 2.82 µM (≈ 7.99 µg/mL)
- MIC [22]: 5.52 µM (≈ 15.6 µg/mL)
- MIC [23]: 2.23 µM (≈ 6.32 µg/mL)

SMILES: CC[C@H](C)[C@H](NC(=O)[C@H](CCCCN)NC(=O)[C@H](CCCCN)NC(=O)[C@H](CC(C)C)NC(=O)[C@H](CC(=O)O)NC(=O)[C@@H](NC(=O)[C@@H](N)Cc1ccccc1)C(C)C)C(=O)N[C@@H](C)C(=O)N[C@@H](CC(N)=O)C(=O)N[C@H](C(=O)N[C@H](C(=O)N[C@@H](CC(N)=O)C(=O)N[C@@H](CO)C(=O)N[C@H](C(=O)N[C@@H](Cc1ccccc1)C(N)=O)[C@@H](C)CC)[C@@H](C)CC)[C@@H](C)CC [FVDLKKIANIINSIF]
- MIC [24]: 14.4 µM (≈ 25 µg/mL)
- MIC [25]: > 100 µM
- MIC [26]: 14.4 µM (≈ 25 µg/mL)
- MIC [27]: ≥ 100 µM
- MIC [28]: 14.4 µM (≈ 25 µg/mL)
- MIC [22]: 3.1 µM (≈ 5.38 µg/mL)

SMILES: CC[C@H](C)[C@H](NC(=O)[C@H](Cc1ccc(O)cc1)NC(=O)[C@@H](NC(=O)[C@@H]1CCCN1C(=O)[C@H](CCCN=C(N)N)NC(=O)[C@@H](NC(=O)[C@@H]1CCCN1C(=O)[C@@H](N)CCCN=C(N)N)C(C)C)C(C)C)C(=O)N1CCC[C@H]1C(=O)N[C@@H](CCC(N)=O)C(=O)N1CCC[C@H]1C(=O)N[C@@H](CCCN=C(N)N)C(=O)N1CCC[C@H]1C(=O)N1CCC[C@H]1C(=O)N[C@@H](Cc1cnc[nH]1)C(=O)N1CCC[C@H]1C(=O)N[C@@H](CCCN=C(N)N)C(=O)N[C@@H](CC(C)C)C(=O)O [RPVRPVYIPQPRPPHPRL]
- MIC [29]: 10 µM (≈ 21.8 µg/mL)
- MIC [30]: 6.25 µM (≈ 13.6 µg/mL)
- MIC [31]: 0.313 µM (≈ 0.681 µg/mL)
- MIC [32]: 6.25 µM (≈ 13.6 µg/mL)

Further lines, results first:

- MIC [1]: 3.88 µM (≈ 10 µg/mL)
- MIC [2]: 16 µM (≈ 41.2 µg/mL)
- MIC [3]: 0.971 µM (≈ 2.5 µg/mL)
- MIC [4]: 1.94 µM (≈ 5 µg/mL)
- MIC [5]: 0.194 µM (≈ 0.5 µg/mL)
- MIC [6]: 0.971 µM (≈ 2.5 µg/mL)
- MIC [7]: 0.0971 µM (≈ 0.25 µg/mL)
SMILES: CC(C)C[C@H](NC(=O)[C@H](CCCCN)NC(=O)[C@H](CCCN=C(N)N)NC(=O)[C@H](CCCN=C(N)N)NC(=O)[C@@H](N)CCCCN)C(=O)N[C@@H](C)C(=O)N[C@@H](Cc1ccccc1)C(=O)N[C@@H](CCCN=C(N)N)C(=O)N[C@@H](CC(C)C)C(=O)N[C@@H](Cc1ccccc1)C(=O)N[C@@H](CCCN=C(N)N)C(=O)N[C@@H](CC(C)C)C(=O)N[C@@H](Cc1ccccc1)C(=O)N[C@@H](CC(C)C)C(=O)N[C@@H](CCCCN)C(=O)N[C@@H](CC(C)C)C(=O)N[C@H](C(=O)N[C@@H](CC(C)C)C(=O)N[C@@H](CCCCN)C(=O)N[C@@H](CCCCN)C(N)=O)C(C)C [KRRKLAFRLFRLFLKLVLKK]

- MIC [8]: 10 µM (≈ 23.4 µg/mL)
- MIC [9]: ≥ 100 µM
- MIC [10]: 10 µM (≈ 23.4 µg/mL)
- MIC [11]: ≥ 100 µM
SMILES: CSCC[C@H](NC(=O)[C@H](CO)NC(=O)[C@@H](N)CO)C(=O)N[C@@H](CCCCN)C(=O)N[C@@H](CC(C)C)C(=O)N[C@@H](CO)C(=O)N[C@@H](Cc1ccccc1)C(=O)N[C@@H](CCCN=C(N)N)C(=O)N[C@@H](C)C(=O)N[C@@H](CCCN=C(N)N)C(=O)N[C@@H](C)C(=O)N[C@@H](Cc1ccc(O)cc1)C(=O)NCC(=O)N[C@@H](Cc1ccccc1)C(=O)N[C@@H](CCCN=C(N)N)C(=O)NCC(=O)N1CCC[C@H]1C(=O)NCC(=O)N[C@@H](CC(C)C)C(=O)N[C@@H](CCC(N)=O)C(=O)N[C@@H](CC(C)C)C(=O)O [SSMKLSFRARAYGFRGPGLQL]

- MIC [33]: 11.2 µM (≈ 18.8 µg/mL)
- MIC [34]: 11.2 µM (≈ 18.8 µg/mL)
- MIC [35]: 29.8 µM (≈ 50 µg/mL)
- MIC [36]: 11.9 µM and 11.2 µM
- MIC [37]: 5.95 µM (≈ 10 µg/mL)
- MIC [38]: 22.3 µM (≈ 37.5 µg/mL)
- MIC [39]: 25 µM (≈ 42 µg/mL)
- MIC [21]: > 29.8 µM
SMILES: CC(C)C[C@H](NC(=O)[C@H](CCCCN)NC(=O)[C@H](CCCCN)NC(=O)[C@H](CO)NC(=O)[C@H](Cc1ccccc1)NC(=O)[C@H](CCCCN)NC(=O)[C@H](CCCCN)NC(=O)[C@H](CC(C)C)NC(=O)CNC(=O)[C@H](CCCCN)NC(=O)[C@H](CC(C)C)NC(=O)CNC(=O)[C@H](Cc1c[nH]c2ccccc12)NC(=O)[C@@H](N)Cc1ccccc1)C(=O)O [FWGLKGLKKFSKKL]
